Measured values taken from patent US20190077809A1, “Spirocyclic Derivatives” (BASF SE, priority 2016, published 2019).

Experiments:
Type in all cases: in vivo
[1] = tested on: Anthonomus grandis; experiment: Boll weevil (Anthonomus grandis) insect diet/egg microtiter test; details: 120 h, egg and larval mortality on sprayed insect diet, 5 days, read-out: mortality in comparison with untreated controls
Procedure: For evaluating control of boll weevil (Anthonomus grandis) the test unit consisted of 96-well-microtiter plates containing an insect diet and 5-10 A. grandis eggs.
(§1) The compounds were formulated using a solution containing 75% v/v water and 25% v/v DMSO. Different concentrations of formulated compounds were sprayed onto the insect diet at 5 μl, using a custom built micro atomizer, at two replications.
After application, microtiter plates were incubated at about 25±1° C. and about 75±5% relative humidity for 5 days. Egg and larval mortality was then visually assessed.

[2] = tested on: Halyomorpha halys; experiment: Brown marmorated stink bug (Halyomorpha halys) sprayed peanut/soybean seed test; details: 120 h, adult stage, sprayed cups with peanuts and soybean seeds, after 5 days, read-out: mortality in comparison with untreated controls
Procedure: The active compound was dissolved at the desired concentration in a mixture of 1:1 (vol:vol) distilled water:acetone. Surfactant (Kinetic HV) was added at a rate of 0.01% (vol/vol). The test solution was prepared at the day of use.
Row peanuts and soybean seeds were placed into microwavable plastic cups and inoculated with five adult stage H. halys. Using a hand atomizer, approximately 1 ml solution is sprayed into each cup, insects and food present. A water source was provided (cotton wick with water). Each treatment is replicated 4-fold. Assay arenas are kept at about 25° C. Percent mortality was recorded after 5 days.

[3] = tested on: Nephotettix virescens; experiment: Rice green leafhopper (Nephotettix virescens) sprayed rice seedling test; details: adults on sprayed rice seedlings, after 72 hours, read-out: mortality in comparison with untreated controls
Procedure: Rice seedlings were cleaned and washed 24 hours before spraying. The active compounds were formulated in 1:1 acetone:water (vol:vol), and 0.01% vol/vol surfactant (Kinetic HV) was added. Potted rice seedlings were sprayed with 5-6 ml test solution, air dried, covered with Mylar cages cages and inoculated with 10 adults. Treated rice plants were kept at about 28-29° C. and relative humidity of about 50-60%. Percent mortality was recorded after 72 hours.

[4] = tested on: Heliothis virescens; experiment: Tobacco budworm (Heliothis virescens) insect diet/egg microtiter test; details: 120 h, egg and larval mortality on sprayed insect diet, 5 days, read-out: mortality in comparison with untreated controls
Procedure: For evaluating control of tobacco budworm (Heliothis virescens) the test unit consisted of 96-well-microtiter plates containing an insect diet and 15-25 H. virescens eggs.
The compounds were formulated using a solution containing 75% v/v water and 25% v/v DMSO. Different concentrations of formulated compounds were sprayed onto the insect diet at 10 μl, using a custom built micro atomizer, at two replications.
After application, microtiter plates were incubated at about 28+1° C. and about 80+5% relative humidity for 5 days. Egg and larval mortality was then visually assessed.

[5] = tested on: Dichromothrips corbetti; experiment: Orchid thrips (dichromothrips corbetti) floral-immersion test; details: adult thrips on dipped orchid petals, 72 hours after treatment, read-out: mortality in comparison with untreated controls
Procedure: Dichromothrips corbetti adults used for bioassay were obtained from a colony maintained continuously under laboratory conditions. For testing purposes, the test compound is diluted in a 1:1 mixture of acetone:water (vol:vol), plus Kinetic HV ata rate of 0.01% v/v.
Thrips potency of each compound was evaluated by using a floral-immersion technique. All petals of individual, intact orchid flowers were dipped into treatment solution and allowed to dry in Petri dishes. Treated petals were placed into individual re-sealable plastic along with about 20 adult thrips. All test arenas were held under continuous light and a temperature of about 28° C. for duration of the assay. After 3 days, the numbers of live thrips were counted on each petal. The percent mortality was recorded 72 hours after treatment.

[6] = tested on: Megoura viciae; experiment: Vetch aphid (Megoura viciae) broad bean leaf disk test; details: foliar, 120 h, adult aphids on sprayed broad bean leaf disks, 5 days, read-out: mortality in comparison with untreated controls
Procedure: For evaluating control of vetch aphid (Megoura viciae) through contact or systemic means the test unit consisted of 24-well-microtiter plates containing broad bean leaf disks.
The compounds were formulated using a solution containing 75% v/v water and 25% v/v DMSO. Different concentrations of formulated compounds were sprayed onto the leaf disks at 2.5 μl, using a custom built micro atomizer, at two replications.
After application, the leaf disks were air-dried and 5- 8 adult aphids placed on the leaf disks inside the microtiter plate wells. The aphids were then allowed to suck on the treated leaf disks and incubated at about 23±1° C. and about 50±5% relative humidity for 5 days. Aphid mortality and fecundity was then visually assessed.

[7] = tested on: Spodoptera eridania; experiment: Southern armyworm (Spodoptera eridania) sprayed lima bean foliage test; details: foliar, 96 h, larvae on sprayed lima bean plants, 4 days after treatment, read-out: mortality in comparison with untreated controls
Procedure: The active compounds were formulated in cyclohexanone as a 10,000 ppm solution supplied in tubes. The tubes were inserted into an automated electrostatic sprayer equipped with an atomizing nozzle and they served as stock solutions for which lower dilutions were made in 50% acetone:50% water (v/v). A nonionic surfactant (Kinetic®) was included in the solution at a volume of 0.01% (v/v).
Lima bean plants (variety Sieva) were grown 2 plants to a pot and selected for treatment at the 1st true leaf stage. Test solutions were sprayed onto the foliage by an automated electrostatic plant sprayer equipped with an atomizing spray nozzle. The plants were dried in the sprayer fume hood and then removed from the sprayer. Each pot was placed into perforated plastic bags with a zip closure. About 10 to 11 armyworm larvae were placed into the bag and the bags zipped closed. Test plants were maintained in a growth room at about 25° C. and about 20-40% relative humidity for 4 days, avoiding direct exposure to fluorescent light (24 hour photoperiod) to prevent trapping of heat inside the bags. Mortality and reduced feeding were assessed 4 days after treatment, compared to untreated control plants.

[8] = tested on: Tetranychus kanzawai; experiment: Red spider mite (Tetranychus kanzawai) sprayed cowpea bean test; details: mites on sprayed cowpea beans, 72 hours after treatment, read-out: mortality in comparison with untreated controls
Procedure: The active compound was dissolved at the desired concentration in a mixture of 1:1 (vol:vol) distilled water:acetone. Add surfactant (Kinetic HV) was added at a rate of 0.01% (vol/vol).The test solution was prepared at the day of use.
Potted cowpea beans of 4-5 days of age were cleaned with tap water and sprayed with 1-2 ml of the test solution using air driven hand atomizer. The treated plants were allowed to air dry and afterwards inoculated with 30 or more mites by clipping a cassava leaf section from rearing population. Treated plants were placed inside a holding room at about 25-27° C. and about 50-60% relative humidity. Percent mortality was assessed 72 hours after treatment.

[9] = tested on: Plutella xylostella; experiment: Diamond back moth (Plutella xylostella) cabbage leaf-dip test; details: 3rd instar larvae on dipped cabbage leaves, 72 hours after treatment, read-out: mortality in comparison with untreated controls
Procedure: The active compound was dissolved at the desired concentration in a mixture of 1:1 (vol:vol) distilled water:aceteone. Surfactant (Kinetic HV) was added at a rate of 0.01% (vol/vol).The test solution was prepared at the day of use.
Leaves of cabbage were dipped in test solution and air-dried. Treated leaves were placed in petri dishes lined with moist filter paper and inoculated with ten 3rd instar larvae. Mortality was recorded 72 hours after treatment. Feeding damages were also recorded using a scale of 0-100%.

[10] = tested on: Myzus persicae; experiment: Green peach aphid (Myzus persicae) systemic test, artificial diet in microtiter plates; details: 72 h, adult aphids on treated artificial diet, 3 days, read-out: mortality in comparison with untreated controls
Source text: For evaluating control of green peach aphid (Myzus persicae) through systemic means the test unit consisted of 96-well-microtiter plates containing liquid artificial diet under an artificial membrane.
The compounds were formulated using a solution containing 75% v/v water and 25% v/v DMSO. Different concentrations of formulated compounds were pipetted into the aphid diet, using a custom built pipetter, at two replications.
After application, 5-8 adult aphids were placed on the artificial membrane inside the microtiter plate wells. The aphids were then allowed to suck on the treated aphid diet and incubated at about 23±1 ° C. and about 50±5% relative humidity for 3 days. Aphid mortality and fecundity was then visually assessed.

[11] = tested on: Nezara viridula; experiment: Green soldier stink bug (Nezara viridula) sprayed soybean pod test; details: 120 h, late 3rd instar on sprayed soybean pods, after 5 days, read-out: mortality in comparison with untreated controls
Procedure: The active compound was dissolved at the desired concentration in a mixture of 1:1 (vol:vol) distilled water:acetone. Surfactant (Kinetic HV) was added at a rate of 0.01% (vol/vol). The test solution was prepared at the day of use.Soybean pods were placed in glass Petri dishes lined with moist filter paper and inoculated with ten late 3rd instar N. vindula. Using a hand atomizer, approximately 2 ml solution is sprayed into each Petri dish. Assay arenas were kept at about 25° C. Percent mortality was recorded after 5 days.

[12] = tested on: Ceratitis capitata; experiment: Mediterranean fruitfly (Ceratitis capitata) insect diet/egg microtiter test; details: 120 h, egg and larval mortality on sprayed insect diet, 5 days, read-out: mortality in comparison with untreated controls
Procedure: For evaluating control of Mediterranean fruitfly (Ceratitis capitata) the test unit consisted of microtiter plates containing an insect diet and 50-80 C. capitata eggs.
as §1
After application, microtiter plates were incubated at about 28±1° C. and about 80±5% relative humidity for 5 days. Egg and larval mortality was then visually assessed.

CC(=O)N1CC2(C1)OCc1cc(C3=CSC(c4cc(Cl)c(F)c(Cl)c4)(C(F)(F)F)C3)ccc12 (centres unmarked) [Compound I-2-2, 1-[6-[2-(3,5-dichloro-4-fluoro-phenyl)-2-(trifluoromethyl)-3H-thiophen-4-yl]spiro[1H-isobenzofuran-3,3′-azetidine]-1′-yl]ethanone]
≥ 75%: mortality at 2500 ppm [1] | mortality at 100 ppm [2] | mortality at 300 ppm [3] | mortality at 2500 ppm [4] | mortality at 300 ppm [5] | mortality at 2500 ppm [6] | mortality at 10 ppm [7] | mortality at 300 ppm [8] | mortality at 300 ppm [9] | mortality at 2500 ppm [10] | mortality at 300 ppm [11]

CCC(=O)N1CC2(C1)OCc1cc(C3=CCC(c4cc(Cl)c(F)c(Cl)c4)(C(F)(F)F)C3)ccc12 (centres unmarked) [Compound I-1-1, 1-[6-[4-(3,5-dichloro-4-fluoro-phenyl)-4-(trifluoromethyl)cyclopenten-1-yl]spiro[1H-isobenzofuran-3,3′-azetidine]-1′-yl]propan-1-one]
≥ 75%: mortality at 2500 ppm [12] | mortality at 2500 ppm [1] | mortality at 100 ppm [2] | mortality at 300 ppm [3] | mortality at 2500 ppm [4] | mortality at 300 ppm [5] | mortality at 2500 ppm [6] | mortality at 10 ppm [7] | mortality at 300 ppm [8] | mortality at 300 ppm [9] | mortality at 2500 ppm [10] | mortality at 300 ppm [11]
